Results on 8 compounds are retold here after patent publication US10981932B2, “Macrocyclic indole derivatives” (Bayer Aktiengesellschaft, priority 2016, dated 2021).

One series deals with MCL-1 (Homo sapiens, UniProt Q07820). The series can be described thus: Protein-protein interaction assay MCL-1/Noxa BH3 peptide (MCL-1 assay), TR-FRET. Type of series: binding. Particulars: MBP-MCL-1 / Noxa BH3-derived peptide, median. The protocol: Protein-Protein Interaction Assay: MCL-1/Noxa BH3 Peptide (MCL-1 Assay) […]
In the assay 11 different concentrations of each compound (0.1 nM, 0.33 nM, 1.1 nM, 3.8 nM, 13 nM, 44 nM, 0.15 μM, 0.51 μM, 1.7 μM, 5.9 μM and 20 μM) were typically measured as duplicates in the same microtiter plate. For that, 100-fold concentrated DMSO solutions were prepared by serial dilutions (1:3.4) of a 2 mM stock solution in a clear, 384-well microtiter plate (Greiner Bio-One, Frickenhausen, Germany). From there, 50 ni were transferred in a dark test plate (Greiner Bio-One, Frickenhausen, Germany). The assay was initiated by addition of 2 μl of a 2.5-fold concentrated MBP-MCL-1 solution (usually for a 1 nM end concentration in 5 μl reaction volume) in aqueous assay buffer [50 mM Tris/HCl pH 7, 100 mM sodium chloride (NaCl), 50 mM potassium fluoride (KF), 0.005% Tween-20, 2 mM DTT, 0.1% bovine gamma globulin (BGG)] to the compounds in the assay plate. This was followed by a 10-minute incubation step at 22° C. for pre-equilibration of the putative complex between MBP-MCL-1 and the compounds. After that.
The mixture was incubated in the dark for one hour at 22° C. and then overnight at 4° C. The formation of MCL-1/Noxa complexes was determined by measuring the resonance energy transfer of the anti-MBP- Eu-cryptate antibody to the streptavidin-XL665 present in the reaction. For that purpose, the fluorescence emission at 620 nm and 665 nm after excitation at 330-350 nm was measured in a TR-FRET measuring instrument, for instance a Rubystar or a Pherastar (both from BMG Lab Technologies, Offenburg, Germany) or a Viewlux (Perkin-Elmer). The ratio of the emission at 665 nm and at 622 nm was used as indicator of the amount of MCL-1/NOXA complexes present.
The resulting data (ratio) were normalized, taking 0% inhibition as the mean value of control measurements (usually 32 data points) where all reagents were included. In this case 50 nl DMSO were used instead of compounds. A 100% inhibition corresponded to the mean value of control measurements (usually 32 data points) where all reagents except MCL-1 were included. IC50 values were determined by regression analysis based on a 4 parameter equation (minimum, maximum, IC50, Hill; Y=Max+(Min−Max)/(1+(X/IC50)^Hill) using the Screener Software (Genedata).
(In general: TR-FRET usually uses a lanthanide donor and a delayed reading to cut background.)

Series [1] concerns SUDHL5. As to the kind of experiment: Induction of caspase-3/7 activity (Caspase-Glo 3/7), SUDHL5. Particulars: caspase-3/7 induction, SUDHL5 cells, 3 h treatment, median. Type of series: cell-based. As to the method:
(§1) Induction of Caspase-317 Activity Upon Treatment of Cells with Selected Compounds
(§2) The BH3-domain of MCL-1 sequesters pro-apoptotic proteins, thereby inhibiting apoptosis. In contrast, MCL-1 inhibitors are expected to antagonize this effect leading to an increase in apoptosis, which can be determined by measuring the activity of caspase-3/7.
(§3) The activity of caspase-3/7 was determined in DLBCL (Diffuse large B-cell lymphoma) cell lines (SUDHL5 and SUDHL10) upon treatment with different compounds, using the Caspase-Glo® 3/7 reagent from Promega (G8092).
(§4) Rim wells were excluded. The cells were incubated for 3 h hours in a humidified incubator at 37° C.
(§5) For the evaluation of the results, the background measured with “medium-only” was subtracted from all other values. […] The Bella DRC Master Sheet was used to calculate EC50s, with fixed C0=1 and CI=plateaulmax induction for the reference compound.

Series [2] relates to SUDHL10. The series can be described thus: Induction of caspase-3/7 activity (Caspase-Glo 3/7), SUDHL10. Conditions: caspase-3/7 induction, SUDHL10 cells, 3 h treatment, median. The format is cell-based. The protocol:
as §1, §2, §3, §4, §5

For series [3], the system named is SUDHL5. As to the kind of experiment: Anti-proliferative effect (CellTiter-Glo, 72 h), SUDHL5. Conditions: SUDHL5 cells, antiproliferation, 72 h incubation, median, read-out: Antiproli SUDHL5 [M] (median). The format is cell-based. The protocol: (§6) Assessment of the Anti-Proliferative Effect of Compounds in Different Cell Lines
(§7) The impact of compounds on the proliferation of different cell lines was assessed using the CellTiter-Glo® Luminescent Cell Viability reagent from Promega (G7573). Of note, SUDHL10 and SUDHL5 (DLBCL), NCI-H929 (Multiple Myeloma), A2780 (ovarian carcinoma) as well as MV-4-11(AML) cells are sensitive to MCL-1 inhibition.
(§8) In parallel, cells were plated in a reference (day 0) plate for time zero determination.
(§9) Rim wells were excluded. The cells were incubated for 72 h hours in a humidified incubator at 37° C. The day 0 plate was measured by adding 30 μl/well of CTG solution (CellTiter-Glo® Luminescent Cell Viability reagent, Promega G7573) to time zero wells in the reference plate followed by a 10 minutes incubation and luminescence reading at 0.1 ms, using the PHERAstar FS microplate reader (BMG Labtech).
(§10) After 72 h incubation, the treated plates were measured in the same way as the day 0 plate mentioned above.

Series [4] relates to SUDHL5. The series can be described thus: Induction of cytotoxicity (CellTiter-Glo, 5 h), SUDHL5. (In general: ATP-based viability assays read luminescence as a measure of living cells.)
Series [5] has as its system SUDHL10. The series can be described thus: Induction of cytotoxicity (CellTiter-Glo, 5 h), SUDHL10.
The test system of the next series is A2780. The series can be described thus: Anti-proliferative effect (CellTiter-Glo, 72 h), A2780. The format is cell-based. Particulars: A2780 cells, median, read-out: IC50 antiproliferation assay A2780 [M] (median). As to the method: as §6, §7, §8, §9, §10
The mark [6] stands for this setting: Homo sapiens, SU-DHL-5, 5 h, read-out: Cytotox SUDHL5 [M] (median), SUDHL5 cells, cytotoxicity induction, CellTiter-Glo, 5 h incubation, median.
Setting [7] is: Homo sapiens, SU-DHL10, 5 h, read-out: Cytotox SUDHL10 [M] (median), SUDHL10 cells, cytotoxicity induction, CellTiter-Glo, 5 h incubation, median.
Where [8] appears, read: read-out: Cytotox SUDHL5 [M] (median), SUDHL5 cells, cytotoxicity induction, CellTiter-Glo, 5 h incubation, median.

Where two headings read alike, the source gives them in different places. A value given as a limit tells only on which side of the number the result lay.

Chain of MCL-1 (Q07820 whole entry): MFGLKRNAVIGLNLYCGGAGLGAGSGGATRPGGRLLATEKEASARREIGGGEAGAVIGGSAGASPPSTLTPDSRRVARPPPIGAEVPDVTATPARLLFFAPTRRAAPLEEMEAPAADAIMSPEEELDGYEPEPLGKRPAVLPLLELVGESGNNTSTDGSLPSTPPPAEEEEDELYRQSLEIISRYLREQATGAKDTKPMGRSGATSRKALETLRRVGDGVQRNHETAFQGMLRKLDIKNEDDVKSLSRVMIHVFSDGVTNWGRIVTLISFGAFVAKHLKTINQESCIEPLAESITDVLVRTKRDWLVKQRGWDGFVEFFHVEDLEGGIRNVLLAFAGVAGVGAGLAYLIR

`Cn1nc(COc2ccc(N3CCN(C(=O)OC(C)(C)C)CC3)cc2)c2c1COCCCCn1c(C(=O)O)c(CCCOc3cccc4ccccc34)c3cccc-2c31` (racemic) [Example 1-6, (rac)-3-({4-[4-(tert-butoxycarbonyl)piperazin-1-yl]phenoxy}methyl)-1-methyl-7-[3-(naphthalen-1-yloxy)propyl]-1,10,11,12,13,15-hexahydropyrazolo[4′,3′:9,10][1,6]oxazacycloundecino[8,7,6-hi]indole-8-carboxylic Acid]: the IC50 at MCL-1 is 0.0187 µM; in the series with SUDHL5 [3] (Homo sapiens, SU-DHL-5, 72 h), 1.37e-06 M; in the series with SUDHL5 [4] (setting [6]), 1.15e-05 M; in the series on SUDHL10 [5] (setting [7]), more than 3.3e-05 M. Also, the EC50 with SUDHL5 [1] (Homo sapiens, SU-DHL-5, 3 h) is 7.67 µM; in the series on SUDHL10 [2] (Homo sapiens, SU-DHL10, 3 h) it was 11.9 µM.

`Cn1nc(COc2ccc(C3(O)CCOCC3)cc2)c2c1COCCCCn1c(C(=O)O)c(CCCOc3cccc4ccccc34)c3cccc-2c31` (racemic) [Example 1-61, (rac)-3-{[4-(4-hydroxytetrahydro-2H-pyran-4-yl)phenoxy]methyl}-1-methyl-7-[3-(naphthalen-1-yloxy)propyl]-1,10,11,12,13,15-hexahydropyrazolo[4′,3′:9,10][1,6]oxazacycloundecino[8,7,6-hi]indole-8-carboxylic Acid]: the IC50 at MCL-1 worked out at 0.00293 µM; in the series with SUDHL5 [3] (Homo sapiens, SU-DHL-5, 72 h), 5.41e-06 M; in the series on SUDHL5 [4] (setting [6]), 1.33e-05 M; in the series on SUDHL10 [5] (setting [7]), 2.11e-05 M. Also, the EC50 with SUDHL5 [1] (Homo sapiens, SU-DHL-5, 3 h) was found to be 6.16 µM; with SUDHL10 [2] (Homo sapiens, SU-DHL10, 3 h) it was 10.7 µM.

For the compound `COC1(c2ccc(OCc3nn(C)c4c3-c3cccc5c(CCCOc6cccc7ccccc67)c(C(=O)O)n(c35)CCCCOC4)cc2)CCOCC1` (racemic) [Example 1-65, (rac)-3-{[4-(4-methoxytetrahydro-2H-pyran-4-yl)phenoxy]methyl}-1-methyl-7-[3-(naphthalen-1-yloxy)propyl]-1,10,11,12,13,15-hexahydropyrazolo[4′,3′:9,10][1,6]oxazacycloundecino[8,7,6-hi]indole-8-carboxylic Acid], the IC50 at MCL-1 was 0.031 µM; with SUDHL5 [3] (Homo sapiens, SU-DHL-5, 72 h), 3.71e-06 M; with SUDHL5 [4] (setting [6]) it was more than 3.3e-05 M; with SUDHL10 [5] (setting [7]), 3.13e-05 M. Further, the EC50 with SUDHL5 [1] (Homo sapiens, SU-DHL-5, 3 h) was 16.3 µM; with SUDHL10 [2] (Homo sapiens, SU-DHL10, 3 h) it was 17.5 µM.

Consider `Cn1nc(CO)c2c1COCCCCn1c(C(=O)O)c(CCCOc3cccc4ccccc34)c3cccc-2c31` (racemic) [Example 1-95, (rac)-3-(hydroxymethyl)-1-methyl-7-[3-(naphthalen-1-yloxy)propyl]-1,10,11,12,13,15-hexahydropyrazolo[4′,3′:9,10][1,6]oxazacycloundecino[8,7,6-hi]indole-8-carboxylic Acid], for which the IC50 was 0.0039 µM against MCL-1; 4.8e-06 M in the series with SUDHL5 [3] (Homo sapiens, SU-DHL-5, 72 h); 1.98e-05 M with SUDHL5 [4] (setting [6]); more than 3.3e-05 M in the series with SUDHL10 [5] (setting [7]). Besides, the EC50 with SUDHL5 [1] (Homo sapiens, SU-DHL-5, 3 h) was 10.8 µM; in the series with SUDHL10 [2] (Homo sapiens, SU-DHL10, 3 h), 22.7 µM.

Consider `Cc1c2c(nn1CC(F)(F)F)COC/C=C\Cn1c(C(=O)O)c(CCCOc3cccc4ccccc34)c3cccc-2c31` (racemic) [Example 091, (rac)-(11Z)-3-methyl-7-[3-(naphthalen-1-yloxy)propyl]-2-(2,2,2-trifluoroethyl)-2,10,13,15-tetrahydropyrazolo[4′,3′:9,10][1,6]oxazacycloundecino[8,7,6-hi]indole-8-carboxylic Acid], for which the IC50 against MCL-1 was determined as 0.0202 µM; with SUDHL5 [3] (Homo sapiens, SU-DHL-5, 72 h) it was 6.92e-06 M; with A2780 (Homo sapiens, A2780, 72 h) it was 7.1e-06 M; with SUDHL5 [4] (setting [6]), 1.48e-05 M; in the series with SUDHL10 [5] (setting [7]), 1.89e-05 M. For the same compound, the EC50 in the series on SUDHL5 [1] (Homo sapiens, SU-DHL-5, 3 h) came out at 23.5 µM; with SUDHL10 [2] (Homo sapiens, SU-DHL10, 3 h) it was 31.8 µM.

With `COCCn1nc(C2CC2)c2c1COCCCCn1c(C(=O)O)c(CCCOc3cccc4ccccc34)c3cccc-2c31` (racemic) [Example 102, (rac)-3-Cyclopropyl-1-(2-methoxyethyl)-7-[3-(naphthalen-1-yloxy)propyl]-1,10,11,12,13,15-hexahydropyrazolo[4′,3′:9,10][1,6]oxazacycloundecino[8,7,6-hi]indole-8-carboxylic Acid], the IC50 is 0.00682 µM on MCL-1; 1.32e-05 M in the series on SUDHL5 [3] (Homo sapiens, SU-DHL-5, 72 h); more than 3.3e-05 M in the series with A2780 (Homo sapiens, A2780, 72 h); 6.12e-06 M in the series on SUDHL5 [4] (setting [6]); more than 3.3e-05 M in the series on SUDHL10 [5] (setting [7]). Moreover, the EC50 was 8.26 µM in the series on SUDHL5 [1] (Homo sapiens, SU-DHL-5, 3 h) and more than 33 µM in the series on SUDHL10 [2] (Homo sapiens, SU-DHL10, 3 h).

Regarding `Cn1nc(COC2CC2)c2c1COCCCCn1c(C(=O)O)c(CCCOc3cccc4ccccc34)c3cccc-2c31` (single isomer, unassigned) [Example 214, 3-[(cyclopropyloxy)methyl]-1-methyl-7-[3-(naphthalen-1-yloxy)propyl]-1,10,11,12,13,15-hexahydropyrazolo[4′,3′:9,10][1,6]oxazacycloundecino[8,7,6-hi]indole-8-carboxylic Acid], the IC50 is 0.00524 µM against MCL-1; 9.08e-06 M in the series on SUDHL5 [3] (Homo sapiens, SU-DHL-5, 72 h); more than 3.3e-05 M in the series with A2780; 2.9e-05 M in the series on A2780 (Homo sapiens, A2780, 72 h); 1.14e-05 M in the series with SUDHL5 [4] (setting [8]). For the same compound, the EC50 in the series with SUDHL5 [1] is 14.9 µM; with SUDHL10 [2] (Homo sapiens, SU-DHL10, 3 h), 20.7 µM; in the series with SUDHL10 [2] it was more than 33 µM.

As for `CN(C)S(=O)(=O)N1CCN(c2ccc(OCc3nn(C)c4c3-c3cccc5c(CCCOc6cccc7ccccc67)c(C(=O)O)n(c35)CCCCOC4)cc2)CC1` (single isomer, unassigned; enantiomer 1) [Example 1-19, 3-({4-[4-(dimethylsulfamoyl)piperazin-1-yl]phenoxy}methyl)-1-methyl-7-[3-(naphthalen-1-yloxy)propyl]-1,10,11,12,13,15-hexahydropyrazolo[4′,3′:9,10][1,6]oxazacycloundecino[8,7,6-hi]indole-8-Carboxylic acid (Enantiomer 1)], the IC50 turned out to be 0.0527 µM against MCL-1; 5.87e-06 M in the series on SUDHL5 [3]; 2.7e-05 M in the series with SUDHL5 [4] (setting [8]); 2.52e-05 M in the series with SUDHL10 [5] (read-out: Cytotox SUDHL10 [M] (median), SUDHL10 cells, cytotoxicity induction, CellTiter-Glo, 5 h incubation, median). Further, the half-maximal effective concentration (EC50) in the series with SUDHL5 [1] came out at 17.2 µM; in the series on SUDHL10 [2] it was 20.6 µM.

As a reminder, the EC50 is the concentration needed to bring the measured effect to its halfway point. The low end stands for an effect from little substance, the high end for a need for much substance.
